# Measured values taken from patent publication EP2368549A1, “Treating hand-foot syndrome and related pathologies using clonidine or its derivatives” (BioAlliance Pharma, priority 2010, dated 2011).
# Experiments:
# [1] = clinical trials of breast or colorectal cancer; cited from earlier work
# TNFα = conditions: culture supernatant, 24h after substance P addition; clonidine treatment before and during substance P stimulation (topical formulations 0.05%-1% on the epidermis)
# Source text: (§1) Human biopsy samples of clinically healthy human skin were obtained from patients undergoing plastic surgery. All patients gave their written informed consent before the surgery has carried out.
# (§2) Skin biopsies were cut into 1 cm2 full thickness pieces and washed three times with antibiotics. Subcutaneous fat and lower dermis were mechanically removed. Skin fragments were transferred onto permeable polycarbonate membrane transwells (12 mm diameter, 12 µm pore size) in a well of 12 well plate (as previously described Boisnic S. et al., [1-3]) containing 700µl of defined medium (DMEM, antibiotics, hormones, pituitary extract, FCS). Explants were maintained at the interface between air and medium with the epithelium uppermost and the dermis exposed to the media by diffusion through the porous membrane.
# (§3) Cohesion between skin fragments and inserts was obtained with a polyvinylsiloxane addition type silicone elastomer seal (coltène® president) in such a way that no skin retraction or lateral passage of the product towards the dermis was possible.
# (§4) The culture was set up for 36 hours in a humidified atmosphere containing 5% CO2 at 37°C, and medium was daily change, culture supernatants were frozen at -80°C until further analysis.
# The stimulation of the experimental oral human skin inflammatory process was done by the neuropeptide substance P (SP) [1]. […]
# [2] = system: human skin organotypic culture; conditions: histology of papillary and upper reticular dermis, 24h after substance P addition; clonidine treatment before and during substance P stimulation
# Source text: as §1, §2, §3, §4
# At the end of culture all human skin fragments were formalin fixed and paraffin embedded. […]
Structure (SMILES),overall incidence of HFS [1],patients reporting a severe form (grade 3) of HFS [1],proinflammatory cytokines TNFα level (TNFα),skin oedema [2],vasodilatation [2]
"CCCCCOC(=O)Nc1nc(=O)n([C@@H]2O[C@H](C)[C@@H](O)[C@H]2O)cc1F [capecitabine, N4-pentyloxycarbonyl-5'-deoxy-5-fluorocytidine]",around 50%,17%,,,
"Clc1cccc(Cl)c1NC1=NCCN1 [clonidine, N-(2,6-dichlorophenyl)-4,5-dihydro-1H-imidazol-2-amine]",,,decrease,decrease,decrease
